Measurements as given in patent publication US11332485B2, “Penicillin-binding protein inhibitors” (priority 2017, dated 2022).
Read-outs that look alike come from different tables or passages of the source.

Assays:
[1] = molecular target: T1, PBP3 from Escherichia coli (Escherichia coli, UniProt P0AD68); assay: Fluorescence polarization competition binding assay with Bocillin-FL
T1 construct: made in house
Text: To determine the ability of boronic acid-based test PBP inhibitors to bind Penicillin Binding Proteins (PBPs), Bocillin-FL (fluorescently-labeled penicillin V; ThermoFisher Scientific) was used in a fluorescence polarization (FP) competition binding assay to assess boronic acid PBP inhibitor binding to PBP3 from Escherichia coli. PBP3 from Escherichia coli was cloned and purified as described previously (King, D. T, et al., ACS Infectious Diseases 2015, 1, 175-184). To establish assay conditions for competition binding, an enzyme titration/saturation binding experiment was performed. Bocillin-FL was prepared at […] in a buffer comprised of 50 mM Hepes (pH 8.0), 300 mM NaCl and 5% (v/v) glycerol. Saturation binding was performed by mixing […] of PBP3 ranging in concentrations from […] with 40 μl of the 0.2 μM Bocillin-FL solution, in individual wells of a black 384-well microplate. FP was measured immediately upon addition of PBP3 (Ex, Em), using a Cytation3 (BioTek) microplate reader and measured continuously for 60 minutes. […] The competition binding assay was validated using the beta-lactam ampicillin, with Bocillin-FL at a final concentration of 0.1 μM, PBP3 at a final concentration of 1.5 μM and concentrations of ampicillin from 0-1000 μM. PBP3 was incubated with ampicillin at different concentrations in a black 384-well microplate (Corning) for 30 minutes, then Bocillin-FL added and the FP immediately measured for 60 minutes. […] Binding assays for boronic acid PBP inhibitors were performed in an identical fashion. Representative results are shown in Table 3, where A represents a potency of >500 μM, B represents a potency between 30 μM and 500 μM inclusive, and C represents a potency of <30 μM. NT=Not Tested.

S. aureus ATCC 29213 = assay: Broth microdilution MIC assay; type: cell-based; settings: Staphylococcus aureus
Procedure: (§1) To determine the ability of test compounds to potentiate the inhibition of the growth of bacterial strains, classic cell based broth microdilution MIC assays were employed. MIC assays are performed according to CLSI methods except where otherwise noted (CLSI, 2011 and CLSI, 2009). The reference strain S. aureus ATCC 29213 and the hyper-permeable E. coli 901C were used to determine the ability of the PBP compounds to inhibit bacterial growth. Briefly, cryo-preserved bacterial cultures of clinical strains are streaked for isolation on appropriate agar medium, in this case Mueller Hinton II agar. Following incubation to allow formation of colonies these plates are sealed with parafilm and stored refrigerated for up to two weeks. For preparation of assay inocula and to ensure low variability, at least 5 colonies are picked from the agar plates with an inoculating loop and aseptically transferred to a culture tube containing 3 mL of Mueller-Hinton Broth (supplemented with divalent cations to required levels based on Manufacturers' certification). The broth culture is grown for 3-5 hours at 37° C. with shaking at 200 rpm. Meanwhile, 2-fold serial dilutions of test compounds are conducted in a 96 well plate with a final volume of 75 μL per well at 2-fold the final desired concentration. After the dilution plates are set up the growing cultures are then diluted in a cuvette containing MH II broth and the optical density is measured at 600 nm. Inocula are diluted such that 75 μL of this culture in Mueller-Hinton Broth results in a starting bacterial concentration of 5×10^5 CFU/mL when added to the dilution plates. The plates are incubated 16-20 hours at 37° C. The MIC is read visually as the lowest concentration well with no bacterial growth.

[2] = tested on: hyper-permeable E. coli 901C; assay: Broth microdilution MIC assay; type: cell-based; settings: Escherichia coli, read-out: E. coli 901C MIC
Procedure: as §1

[3] = tested on: E. coli DH5α/pLBII-CTX-M15; assay: Broth microdilution MIC assay, engineered strain producing CTX-M15; type: cell-based, Escherichia coli; settings: Escherichia coli, read-out: E. coli DH5α/pLBII-CTX-M15 Microbiological Activity (MIC)
Procedure: as §1
(§2) To determine if test compounds were affected by CTX-M15, the most abundant extended spectrum β-lactamase in clinical settings worldwide, the inhibition of the growth of an engineered strain of Escherichia coli harboring CTX-M15 was tested. This strain was constructed by cloning the gene encoding CTX-M15 into the NdeI and BamHI restriction endonuclease sites of plasmid pLBII, placing the gene(s) under the control of the Lac promoter. The constructed expression plasmid for CTX-M15 was used to transform competent E. coli DH5a cells to make the engineered strain, including an empty pLBII vector control strain. The classic cell based broth microdilution MIC assay was employed as described above with the addition of control antibiotics, known to be degraded by β-lactamases (Ceftazidime, piperacillin and piperacillin+tazobactam).

E. coli DH5α/pLBII = assay: Broth microdilution MIC assay, empty vector control strain; type: cell-based; settings: Escherichia coli, read-out: E. coli DH5α/pLBII Microbiological Activity (MIC)
Procedure: as §1, §2

[4] = ATCC29213, broth microdilution, 16-20 hours at 37° C., read-out: S. aureus 29213 MIC

T1 sequence (P0AD68 1-577): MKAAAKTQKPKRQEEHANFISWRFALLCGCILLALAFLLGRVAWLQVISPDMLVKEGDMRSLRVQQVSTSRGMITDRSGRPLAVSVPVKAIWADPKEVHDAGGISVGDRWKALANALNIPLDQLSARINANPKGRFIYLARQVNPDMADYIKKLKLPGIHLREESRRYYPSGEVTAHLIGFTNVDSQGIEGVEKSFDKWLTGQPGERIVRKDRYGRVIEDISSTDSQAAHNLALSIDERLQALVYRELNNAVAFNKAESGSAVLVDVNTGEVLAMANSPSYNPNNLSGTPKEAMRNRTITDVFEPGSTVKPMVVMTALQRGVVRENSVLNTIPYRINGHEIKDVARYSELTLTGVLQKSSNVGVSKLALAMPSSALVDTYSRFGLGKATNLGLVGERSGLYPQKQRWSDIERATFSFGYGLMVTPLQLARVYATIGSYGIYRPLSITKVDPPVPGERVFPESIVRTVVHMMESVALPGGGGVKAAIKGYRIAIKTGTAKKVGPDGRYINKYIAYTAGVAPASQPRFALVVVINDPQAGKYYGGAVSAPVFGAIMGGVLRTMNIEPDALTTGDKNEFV

With `CCN1CCN(C(=O)N[C@@H](C(=O)N[C@H]2Cc3cccc(C(=O)O)c3OB2O)C(C)(C)O)C(=O)C1=O` [Example 86, (R)-3-((R)-2-(4-ethyl-2,3-dioxopiperazine-1-carboxamido)-3-hydroxy-3-methylbutanamido)-2-hydroxy-3,4-dihydro-2H-benzo[e][1,2]oxaborinine-8-carboxylic acid] the EC50 [1] was 30 to 500 µM, the MIC (S. aureus ATCC 29213; [4]) was over 128 µg/mL and the MIC [2] was under 64 µg/mL. The MIC [3] was 32 to 64 µg/mL.

For `CCCCCCCN1CCN(C(=O)NC(C(=O)N[C@H]2Cc3cccc(C(=O)O)c3OB2O)c2csc(N)n2)C(=O)C1=O` (stereo partly drawn) [Example 94, (3R)-3-(2-(2-aminothiazol-4-yl)-2-(4-heptyl-2,3-dioxopiperazine-1-carboxamido)acetamido)-2-hydroxy-3,4-dihydro-2H-benzo[e][1,2]oxaborinine-8-carboxylic acid], the EC50 [1] was under 30 µM, the MIC (S. aureus ATCC 29213; [4]) was 64 to 128 µg/mL and the MIC [2] was under 64 µg/mL. The MIC [3] was 128 to 256 µg/mL.

For `Nc1nc(C(NC(=O)C2CCCC(=O)N2)C(=O)N[C@H]2Cc3cccc(C(=O)O)c3OB2O)cs1` (stereo partly drawn) [Example 68, (3R)-3-(2-(2-aminothiazol-4-yl)-2-(6-oxopiperidine-2-carboxamido)acetamido)-2-hydroxy-3,4-dihydro-2H-benzo[e][1,2]oxaborinine-8-carboxylic acid], the MIC (S. aureus ATCC 29213; [4]) was over 128 µg/mL, the MIC [2] was under 64 µg/mL and the MIC (E. coli DH5α/pLBII) was 128 to 256 µg/mL. It also gave an MIC [3] of 128 to 256 µg/mL.

In the case of `Nc1nc(C(NC(=O)N2CCN(CCCF)C(=O)C2=O)C(=O)N[C@H]2Cc3cccc(C(=O)O)c3OB2O)cs1` (stereo partly drawn) [Example 54, (3R)-3-(2-(2-aminothiazol-4-yl)-2-(4-(3-fluoropropyl)-2,3-dioxopiperazine-1-carboxamido)acetamido)-2-hydroxy-3,4-dihydro-2H-benzo[e][1,2]oxaborinine-8-carboxylic acid], the MIC (S. aureus ATCC 29213; [4]) is reported as 64 to 128 µg/mL, the MIC [2] is reported as under 64 µg/mL and the MIC (E. coli DH5α/pLBII) is reported as 8 to 16 µg/mL. The MIC [3] was 8 to 16 µg/mL.

`N[C@H](Cc1ccccc1)C(=O)N[C@H]1Cc2cccc(C(=O)O)c2OB1O` [Example 1, (R)-3-((R)-2-amino-3-phenylpropanamido)-2-hydroxy-3,4-dihydro-2H-benzo[e][1,2]oxaborinine-8-carboxylic acid] gave an MIC (S. aureus ATCC 29213; [4]) of over 128 µg/mL, an MIC [2] of over 128 µg/mL and an MIC (E. coli DH5α/pLBII) of over 512 µg/mL. The MIC [3] was over 512 µg/mL.

`CN(C)C(=O)NC(C(=O)N[C@H]1Cc2cccc(C(=O)O)c2OB1O)c1csc(N)n1` (stereo partly drawn) [Example 14, (3R)-3-(2-(2-aminothiazol-4-yl)-2-(3,3-dimethylureido)acetamido)-2-hydroxy-3,4-dihydro-2H-benzo[e][1,2]oxaborinine-8-carboxylic acid] was tested, and the MIC (S. aureus ATCC 29213; [4]) was over 128 µg/mL, the MIC [2] was under 64 µg/mL and the MIC (E. coli DH5α/pLBII) was 128 to 256 µg/mL. The MIC [3] was 128 to 256 µg/mL.

Compound `CCN1CCN(C(=O)N[C@H](Cc2c[nH]cn2)C(=O)N[C@H]2Cc3cccc(C(=O)O)c3OB2O)C(=O)C1=O` [Example 40, (R)-3-((R)-2-(4-ethyl-2,3-dioxopiperazine-1-carboxamido)-3-(1H-imidazol-4-yl)propanamido)-2-hydroxy-3,4-dihydro-2H-benzo[e][1,2]oxaborinine-8-carboxylic acid] has an MIC (S. aureus ATCC 29213; [4]) of over 128 µg/mL, an MIC [2] of 64 to 128 µg/mL and an MIC (E. coli DH5α/pLBII) of 128 to 256 µg/mL. For the same compound, the MIC [3] was 128 to 256 µg/mL.

With `Nc1nc(C(NC(=O)c2nccs2)C(=O)N[C@H]2Cc3cccc(C(=O)O)c3OB2O)cs1` (stereo partly drawn) [Example 15, (3R)-3-(2-(2-aminothiazol-4-yl)-2-(thiazole-2-carboxamido)acetamido)-2-hydroxy-3,4-dihydro-2H-benzo[e][1,2]oxaborinine-8-carboxylic acid] the MIC (S. aureus ATCC 29213; [4]) was under 64 µg/mL, the MIC [2] was under 64 µg/mL and the MIC (E. coli DH5α/pLBII) was 128 to 256 µg/mL. It also gave an MIC [3] of 128 to 256 µg/mL.

In the case of `COc1ccc([C@@H](N)C(=O)N[C@H]2Cc3cccc(C(=O)O)c3OB2O)cc1` [Example 4, (R)-3-((R)-2-amino-2-(4-methoxyphenyl)acetamido)-2-hydroxy-3,4-dihydro-2H-benzo[e][1,2]oxaborinine-8-carboxylic acid], the MIC (S. aureus ATCC 29213; [4]) is reported as over 128 µg/mL, the MIC [2] is reported as over 128 µg/mL and the MIC (E. coli DH5α/pLBII) is reported as over 512 µg/mL. The MIC [3] was over 512 µg/mL.

Work on `CCN1CCN(C(=O)NC(C(=O)N[C@H]2Cc3cccc(C(=O)O)c3OB2O)c2csc(NCCN)n2)C(=O)C1=O` (stereo partly drawn) [Example 63, (3R)-3-(2-(2-((2-aminoethyl)amino)thiazol-4-yl)-2-(4-ethyl-2,3-dioxopiperazine-1-carboxamido)acetamido)-2-hydroxy-3,4-dihydro-2H-benzo[e][1,2]oxaborinine-8-carboxylic acid] yielded an EC50 [1] of 30 to 500 µM, an MIC (S. aureus ATCC 29213; [4]) of 64 to 128 µg/mL and an MIC [2] of under 64 µg/mL.

Compound `COC(=O)C(=O)NC(C(=O)N[C@H]1Cc2cccc(C(=O)O)c2OB1O)c1csc(N)n1` (stereo partly drawn) [Example 28, (3R)-3-(2-(2-aminothiazol-4-yl)-2-(2-methoxy-2-oxoacetamido)acetamido)-2-hydroxy-3,4-dihydro-2H-benzo[e][1,2]oxaborinine-8-carboxylic acid] has an MIC (S. aureus ATCC 29213; [4]) of over 128 µg/mL, an MIC [2] of under 64 µg/mL and an MIC (E. coli DH5α/pLBII) of 32 to 64 µg/mL. The MIC [3] was 32 to 64 µg/mL.

With `Nc1nc(C(NC(=O)N2CCN(CC(F)F)C(=O)C2=O)C(=O)N[C@H]2Cc3cccc(C(=O)O)c3OB2O)cs1` (stereo partly drawn) [Example 69, (3R)-3-(2-(2-aminothiazol-4-yl)-2-(4-(2,2-difluoroethyl)-2,3-dioxopiperazine-1-carboxamido)acetamido)-2-hydroxy-3,4-dihydro-2H-benzo[e][1,2]oxaborinine-8-carboxylic acid] the MIC (S. aureus ATCC 29213; [4]) was 64 to 128 µg/mL, the MIC [2] was under 64 µg/mL and the MIC (E. coli DH5α/pLBII) was 8 to 16 µg/mL. For the same compound, the MIC [3] was 8 to 16 µg/mL.

`Nc1nc(C(NC(=O)N2CCCN(O)S2(=O)=O)C(=O)N[C@H]2Cc3cccc(C(=O)O)c3OB2O)cs1` (stereo partly drawn) [Example 77, (3R)-3-(2-(2-aminothiazol-4-yl)-2-(6-hydroxy-1,1-dioxido-1,2,6-thiadiazinane-2-carboxamido)acetamido)-2-hydroxy-3,4-dihydro-2H-benzo[e][1,2]oxaborinine-8-carboxylic acid] showed an MIC (S. aureus ATCC 29213; ATCC29213, read-out: S. aureus 29213 MIC) of over 128 µg/mL, an MIC [2] of under 64 µg/mL and an MIC (E. coli DH5α/pLBII) of 32 to 64 µg/mL. It also gave an MIC [3] of 32 to 64 µg/mL.

`Nc1nc([C@H](N)C(=O)N[C@H]2Cc3cccc(C(=O)O)c3OB2O)cs1` [Example 9, (R)-3-((S)-2-amino-2-(2-aminothiazol-4-yl)acetamido)-2-hydroxy-3,4-dihydro-2H-benzo[e][1,2]oxaborinine-8-carboxylic acid] gave an MIC (S. aureus ATCC 29213; [4]) of over 128 µg/mL, an MIC [2] of over 128 µg/mL and an MIC (E. coli DH5α/pLBII) of 128 to 256 µg/mL. For the same compound, the MIC [3] was 128 to 256 µg/mL.

`Nc1nc(C(NS(=O)(=O)c2cccnc2)C(=O)N[C@H]2Cc3cccc(C(=O)O)c3OB2O)cs1` (stereo partly drawn) [Example 27, (3R)-3-(2-(2-aminothiazol-4-yl)-2-(pyridine-3-sulfonamido)acetamido)-2-hydroxy-3,4-dihydro-2H-benzo[e][1,2]oxaborinine-8-carboxylic acid] was tested, and the MIC (S. aureus ATCC 29213; [4]) was over 128 µg/mL, the MIC [2] was under 64 µg/mL and the MIC (E. coli DH5α/pLBII) was 128 to 256 µg/mL. The MIC [3] was 128 to 256 µg/mL.
